{"source": "patent US9566265B2", "about": "“Carbazole compounds and therapeutic uses of the compounds” (Incuron, LLC, priority 2008, dated 2017)", "key": {"C. krusei": {"system": "C. krusei", "assay": "in vitro susceptibility CLSI M27A3, MIC", "type": "cell-based", "conditions": "Pichia kudriavzevii, ATCC6258; strain ATCC 6258, WT, Susceptible (naturally fluconazole resistant); read-out: MIC* (48 hs)"}, "C. tropicalis": {"system": "C. tropicalis", "assay": "microbe, parasite or virus in culture", "type": "cell-based", "conditions": "Candida tropicalis", "source_text": "Candida spp. strains: 20 Candida spp. clinical isolates and one laboratory control strain (C. albicans SC5314) was used in the study. In the collection were included:\n2 C. tropicalis strains, one ATCC control strain (ATCC 750), and one echinocandin cross-resistant (T3) (11)."}, "C. guilliermondii": {"system": "C. guilliermondii", "assay": "in vitro susceptibility CLSI M27A3, MIC", "type": "cell-based", "conditions": "Meyerozyma guilliermondii, strain ATCC6260, WT, Echinocandin cross-reduced susceptibility", "source_text": "(§1) (12): 1 C. orthopsilosis (981224), 1 C. metapsilosis (2006-113), C. parapsilosis (ATCC 22019 CLSI control), and C. guilliermondii (ATCC6260) (13)."}, "C. metapsilosis": {"system": "C. metapsilosis", "assay": "in vitro susceptibility CLSI M27A3, MIC", "type": "cell-based", "conditions": "Lodderomyces metapsilosis, strain 2006-113, WT, Echinocandin cross-reduced susceptibility", "source_text": "as §1"}, "C. orthopsilosis": {"system": "C. orthopsilosis", "assay": "in vitro susceptibility CLSI M27A3, MIC", "type": "cell-based", "conditions": "Lodderomyces orthopsilosis, strain 981224, WT, Echinocandin cross-reduced susceptibility", "source_text": "as §1"}, "C. parapsilosis": {"system": "C. parapsilosis", "assay": "in vitro susceptibility CLSI M27A3, MIC", "type": "cell-based", "conditions": "Lodderomyces parapsilosis, ATCC22019, strain ATCC 22019, WT, Echinocandin cross-reduced susceptibility", "source_text": "as §1"}, "[1]": {"system": "clinical and laboratory fungal strains", "assay": "in vitro susceptibility, summaries over groups of fungal strains", "type": "cell-based, Aspergillus spp., yeast", "source_text": "Aspergillus spp. […] Moreover, there were no MIC differences between susceptible and azole or echinocandin resistant strains (Table 1).\nOn average, yeast MICs were 8-fold lower than Aspergillus spp. MIC (Table 1). MICs obtained for Example 15 are compatible or better than MICs for conventional antifungal drugs."}, "[2]": {"system": "Af293 strain of A. fumigatus", "assay": "XTT viability assay", "type": "cell-based, Aspergillus fumigatus", "method": "This strain was selected because it is one of the best characterized strains and was the strain used for sequencing the A. fumigatus genome. XTT viability assay is based on the reduction of the tetrazolium salt (XTT) in the presence of menadione as an electron-coupling agent. There is a relationship between the number of viable fungi and the amount of XTT reduction (16).\nThe same methods previously described in performing the XTT assay (17) were used. Af293 conidia were plated on Sabouraud BHI slants with chloramphenicol and gentamicin (Becton Dickinson, Md.), incubated for 7 to 10 days at room temperature, and harvested by washing the slant with 10 ml of 0.05% Tween 20 in normal saline (NS). The conidial suspension then was passed through a 100-μm filter, counted on a hemacytometer, and diluted to 2.0×10^6 CFU/ml. Conidia then were diluted 1:50 in MOPS (morpholinepropanesulfonic acid)-buffered RPMI (pH 7.0). A stock solution of Example 15 dissolved in DMSO was used. […] Following the addition of drug-containing medium to each well, the conidial suspension (100 μl) was added (t=0 h). Control wells contained conidia, medium, and vehicle without drug. Blank wells consisted of medium only without conidia. […] One hundred microliters of the supernatant was transferred to a new plate, and the optical density at 450 nm (OD450) was determined by using a Labsystems Multiskan Plus plate reader. […]"}, "HB 101 E. coli": {"system": "HB 101 E. coli", "assay": "antibacterial cytotoxicity assay, gram(−) bacteria (OD600)", "type": "cell-based", "conditions": "48 hours, over a range of potencies, FIG. 13A"}, "bacteria": {"system": "bacteria", "assay": "antibacterial cytotoxicity assay, comparison with ampicillin control", "type": "cell-based", "method": "In particular, the effect of carbazole compounds of the present invention on gram positive (Bacillus subtilis) and gram negative (DH5-α) bacteria was determined by the following procedure, and is summarized in FIGS. 13A and 13B.\nEach library chemical to be tested requires 2 rows of a 96-well plate, thus 4 chemicals (e.g. W, X, Y, Z) can be tested in one plate simultaneously. In addition to test chemicals, each plate should include positive and negative controls. As positive control, ampicillin is used at 100 μg/ml. As a negative control, DMSO is used in an amount equal to the highest volume of test compound used (˜0.25% DMSO for 50 μM).\nBesides a positive control added in one concentration on each plate, the positive control of ampicillin is added to each assay run in a full concentration range (3 fold dilutions) to ensure proper and robust assay performance (estimated by comparison of dose response curves among runs).\nThe average OD600 nm of the test compound solutions are compared to that of the DMSO control by dividing the average OD600 nm of the test solution by that of the DMSO control and multiplying by 100 to produce the % DMSO control (i.e. % cytotoxicity). The % DMSO control is plotted vs compound concentration to generate sigmoid shaped curves. After three runs are complete, the raw data for all three runs is used for IC50 calculations."}, "A. flavus": {"system": "A. flavus", "assay": "in vitro susceptibility CLSI M38A2, MIC", "conditions": "Aspergillus flavus", "description": "(§2) Eight Aspergillus spp. strains were used throughout the study. Six A. fumigatus, one A. flavus and one A. terreus also were used. The A. fumigatus group included two itraconazole-resistant strains (RIT13 and RIT5 strains) (1), one triazole cross-resistant strain (MUT10) (2, 3), one echinocandin cross-resistant strain (EMFRS678P) (4), and 2 wild type susceptible isolates (R21 and ATCC13073)."}, "A. terreus": {"system": "A. terreus", "assay": "in vitro susceptibility CLSI M38A2, MIC", "conditions": "Aspergillus terreus", "description": "as §2"}}, "note": "Where two headings read alike, the source gives them in different places."}
{"compound": "CCN(CC)CCn1c2ccc3c(c2c2c4c(ccc21)C(=O)CC4)CCC3=O", "note": "[Example 15]", "values": [{"measurement": "MIC", "setting": "C. krusei", "result": 0.66, "unit": "µM"}, {"measurement": "MIC", "setting": "C. tropicalis; strain ATCC750, WT, Susceptible, read-out: MIC* (24 hs)", "result": 0.08, "unit": "µM"}, {"measurement": "MIC", "setting": "C. tropicalis; strain ATCC750, WT, Susceptible, read-out: MIC* (48 hs)", "result": 0.16, "unit": "µM"}, {"measurement": "MIC", "setting": "C. tropicalis; strain T3, Fks1pS645S/P, Echinocandin cross-resistant, read-out: MIC* (24 hs)", "result": 0.04, "unit": "µM"}, {"measurement": "MIC", "setting": "C. tropicalis; strain T3, Fks1pS645S/P, Echinocandin cross-resistant, read-out: MIC* (48 hs)", "result": 0.08, "unit": "µM"}, {"measurement": "MIC", "setting": "C. guilliermondii; read-out: MIC* (24 hs)", "result": 0.08, "unit": "µM"}, {"measurement": "MIC", "setting": "C. guilliermondii; read-out: MIC* (48 hs)", "result": 0.16, "unit": "µM"}, {"measurement": "MIC", "setting": "C. metapsilosis; read-out: MIC* (24 hs)", "result": 0.16, "unit": "µM"}, {"measurement": "MIC", "setting": "C. metapsilosis; read-out: MIC* (48 hs)", "result": 0.16, "unit": "µM"}, {"measurement": "MIC", "setting": "C. orthopsilosis; read-out: MIC* (24 hs)", "result": 0.16, "unit": "µM"}, {"measurement": "MIC", "setting": "C. orthopsilosis; read-out: MIC* (48 hs)", "result": 0.16, "unit": "µM"}, {"measurement": "MIC", "setting": "C. parapsilosis; read-out: MIC* (24 hs)", "result": 0.08, "unit": "µM"}, {"measurement": "MIC", "setting": "C. parapsilosis; read-out: MIC* (48 hs)", "result": 0.08, "unit": "µM"}, {"measurement": "yeast MICs lower than Aspergillus spp. MIC, on average", "setting": "[1]", "result": 8, "unit": "fold"}, {"measurement": "MIC", "setting": "[1]; A. flavus and A. terreus strains, read-out: 24 hs MIC Geom. Means", "result": 0.4, "unit": "µM"}, {"measurement": "IC50", "setting": "[2]; Aspergillus fumigatus, XTT assay at 24 h", "result": "~2500", "unit": "nM"}, {"measurement": "concentration for complete suppression of fungal growth", "setting": "[2]; visual inspection of the wells", "result": "greater than 12.5 μM"}, {"measurement": "antibacterial effect", "setting": "HB 101 E. coli", "result": "antibacterial effect"}, {"measurement": "effectiveness against bacteria compared with the ampicillin control", "setting": "bacteria", "result": "more effective"}, {"measurement": "MIC", "setting": "A. flavus; read-out: MIC* (24 hs)", "result": 0.33, "unit": "µM"}, {"measurement": "MIC", "setting": "A. flavus; read-out: MIC* (48 hs)", "result": 0.33, "unit": "µM"}, {"measurement": "MIC", "setting": "A. terreus; read-out: MIC* (24 hs)", "result": 0.08, "unit": "µM"}, {"measurement": "MIC", "setting": "A. terreus; read-out: MIC* (48 hs)", "result": 1.28, "unit": "µM"}]}
